Experimental findings from patent US20100273848A1, “IMINOPYRROLIDONE THIOL AMINO ACID CONJUGATES, PHARMACEUTICAL COMPOSITIONS AND METHODS FOR THE TREATMENT OF CANCER” (THE ARIZONA BD OR REG ON BEHALF OF THE UNIV OF AZ, priority 2007, published 2010) are described below.

pIC50: −log10 of the molar value. Like-named read-outs stand apart in the source and are kept apart here.

Assay [1] deals with DB lymphoma cells. The assay is described as follows: Cytotoxicity study, MTT assay, DB cells. The assay is classed as cell-based, human. The settings on record: 96 hours, read-out: IC50 at 72* or 96 hours. On the procedure: (§1) Example 1 illustrates a method of determining the antineoplastic activity of iminopyrrolidone thiol amino acid conjugates in vitro. Ninety-six (96) well plates (BD Biosciences, San Jose, Calif.) were seeded with approximately 5000 cells in 160 μl of growth medium per well in the last eleven columns of each plate. The first column of each plate was filled with 160 μl of growth medium containing no cells to be used as a blank. Following a 24-hour incubation period, the cells in the last ten columns were drugged (leaving row one as a blank and row two as a control with uninhibited cell growth) with 40 μl of either simexonyl homocysteine or imexon in growth medium. The quantity of drug added to the wells of each respective column was constant, but varied from column to column such that the resulting concentration in the total volume of each individual well ranged from 1 μM to 1000 μM. […]
A general note: Tetrazolium dyes change colour on reduction, which living cells bring about.

Assay [2] deals with MiaPaCa human pancreatic cancer cells. The assay is described as follows: Cytotoxicity study, SRB assay, MiaPaCa cells. The assay is classed as cell-based. The settings on record: 96 hours, read-out: IC50 at 72* or 96 hours. How it is done: as §1
Background: The SRB assay estimates cell density from bound dye.

The test system of a further assay is Raji lymphoma cells. The assay is described as follows: Cytotoxicity study, MTT assay, Raji cells. The settings on record: 96 hours, read-out: IC50 at 72* or 96 hours. The assay is classed as cell-based, human. How it is done: as §1
Assay [3] relates to DB lymphoma cells. Particulars: 45, 90 or 180 μM, 48 hours after drug exposure, FIG. 6.
Experimental: DB and Raji lymphoma cells were kindly provided by Dr. Alan List (University of Arizona, Tucson, Ariz.). All cell lines were cultured in RPMI 1640 media (Mediatech, Herndon, Va.) enhanced with 5% (v/v) (10% for DB and Raji cells) heat-inactivated bovine calf serum (Hyclone Laboratories, Logan, Utah), 2 mM L-glutamine, 100 U/ml penicillin, and 100 μg/ml streptomycin (each from Invitrogen, Carlsbad, Calif.) in a humidified incubator containing 5% CO2 at 37° C.
DB lymphoma cells were cultured in ninety-six (96) well plates (BD Biosciences) under conditions as described hereinbefore. […] Forty eight hours after drug exposure, the percentage of necrotic, viable, proapoptotic, and apoptotic cells in each respective well was measured using an annexin V—FITC (fluorescein isothiocyanate labeled annexin V) apoptosis detection kit (BioVision Labs) according to the manufacturer's instructions in conjunction with a Bectin Dickenson FACScan (San Jose, Calif.) fluorescence activated cell sorter using CellQuest Pro software (BD Biosciences). […]
A threshold intensity for the fluorescence signal permits one to distinguish between proapoptotic and apoptotic cells in the flow cytometric analysis, but both are indicative of an induction of apoptosis by the drug.
Assay [4] has as its system A375 human malignant melanoma cells. The assay is described as follows: Cytotoxicity study, SRB assay, A375 cells. Format: cell-based. The settings on record: 96 hours, read-out: IC50 at 72* or 96 hours. On the procedure:
as §1

For assay [5], the system named is DU-145 human prostate cancer cells. The assay is described as follows: Cytotoxicity study, SRB assay, DU-145 cells. The assay is classed as cell-based. The settings on record: DU-145 - Prostate, 96 hours, read-out: IC50 at 72* or 96 hours. On the procedure:
as §1

The subject of assay [6] is 8226/s human myeloma cells (chemotherapy sensitive). The assay is described as follows: Cytotoxicity study, MTT assay, 8226/s cells. The assay is classed as cell-based. The settings on record: 8226/s - Myeloma, 96 hours, read-out: IC50 at 72* or 96 hours. How it is done:
as §1

Assay [7] has as its system 8226/I10 human myeloma cells (chemotherapy resistant). The assay is described as follows: Cytotoxicity study, MTT assay, 8226/I10 cells. The assay is classed as cell-based. The settings on record: 8226/I10 - Myeloma, 96 hours, read-out: IC50 at 72* or 96 hours. On the procedure:
as §1

The subject of assay [8] is PC-3 human prostate cancer cells. The assay is described as follows: Cytotoxicity study, SRB assay, PC-3 cells. Particulars: PC-3 - Prostate, 72 hours (*), read-out: IC50 at 72* or 96 hours. The assay is classed as cell-based. How it is done:
as §1

A word on the pIC50: it is −log10 of the IC50, conventionally taken in molar units. For the compound `NC1=NC(=O)N2CC12` (racemic) [imexon, (5RS)-4-amino-1,3-diazabicyclo[3.1.0]hex-3-en-2-one, reference compound], the pIC50 in the assay on DB lymphoma cells [1] (Homo sapiens) was 4.27; in assay [2] (Homo sapiens, MIA PaCa-2, MiaPaCa - Pancreas), 3.72; in the assay on Raji lymphoma cells (Homo sapiens), 4.30.

Take simexonyl homocysteine: the pIC50 in the assay with DB lymphoma cells [1] is 4.64; in assay [2] (MiaPaCa - Pancreas), 4.34; in the assay with Raji lymphoma cells, 4.66; in assay [4] it was 4.81; in assay [5], 3.85; in assay [6] it was 4.87. Also, the results for the pIC50 in assay [7] and in [8] were 4.02 and 4.31, respectively. For the same compound, the “induction of apoptosis (percentage of proapoptotic and apoptotic cells)” value in the assay on DB lymphoma cells [3] is recorded as “induced apoptosis”.
